Data on 11 compounds can be found in patent US8372840B2, “Potassium channel blockers” (Xention Limited, priority 2008, dated 2013).

Assay [1] deals with hKv1.5 (Homo sapiens, UniProt P22460). As to the kind of experiment: Kv1.5 Autopatch Electrophysiology (whole cell patch-clamp). Format: cell-based. Conditions: compound 1 μM, step to 0 mV for 1000 ms, total charge, room temperature (22-24° C.); for inhibition at 1 µM: read-out: hKv1.5 % inh. The procedure: The external bathing solution contained (in mM): 150 NaCl, 10 KCl, […], 3 MgCl2, 1 CaCl2, 10 HEPES, pH 7.4. Patch pipettes were filled with an electrode solution of composition (in mM): 160 KCl, 0.5 MgCl2, 10 HEPES, 1 EGTA, pH 7.4 with KOH.
hKv1.5, sequence (P22460 whole entry): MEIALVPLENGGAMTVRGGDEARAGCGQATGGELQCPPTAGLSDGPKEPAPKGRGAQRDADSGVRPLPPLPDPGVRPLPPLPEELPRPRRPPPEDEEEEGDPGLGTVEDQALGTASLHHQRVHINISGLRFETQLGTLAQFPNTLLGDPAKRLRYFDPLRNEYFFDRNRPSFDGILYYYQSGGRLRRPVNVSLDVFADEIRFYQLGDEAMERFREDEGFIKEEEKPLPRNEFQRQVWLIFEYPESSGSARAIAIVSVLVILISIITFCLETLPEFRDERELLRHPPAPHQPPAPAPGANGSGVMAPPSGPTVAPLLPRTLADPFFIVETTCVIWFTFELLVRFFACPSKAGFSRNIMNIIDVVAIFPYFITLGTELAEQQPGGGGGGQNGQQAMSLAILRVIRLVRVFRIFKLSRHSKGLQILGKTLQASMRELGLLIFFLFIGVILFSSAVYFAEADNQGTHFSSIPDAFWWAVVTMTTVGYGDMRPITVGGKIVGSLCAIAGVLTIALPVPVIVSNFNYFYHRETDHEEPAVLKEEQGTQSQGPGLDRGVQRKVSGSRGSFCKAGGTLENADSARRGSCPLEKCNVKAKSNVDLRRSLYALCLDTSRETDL
Compounds were dissolved in DMSO (100%) and made up in the external bather at a concentration of 1 μM. All experiments were conducted at room temperature (22-24° C.).
A cell suspension (10 ml), with a density of 100,000 cells/ml, was aliquoted into a 15 ml centrifuge tube and transferred to an incubator (37° C., 5% CO2) for approximately one hour before use. Following 60 min incubation, a tube was taken and centrifuged at 1000 rpm for 4 mins at room temperature. 9.5 ml supernatant was thence discarded, leaving a cell pellet at the bottom of the tube. The pellet was then resuspended using 100 μl of cold (4° C.), filtered (0.22 μm), 0.2% BSA/bather solution (0.02 g BSA/10 ml bather). The bottom of the tube was manually agitated gently until the solution became cloudy with cells. The 100 μl cell resuspension solution was then stored on the bench at 4° C. (using a Peltier-based temperature control device) until used.
A length of capillary glass (1B150E-4, WPI) was dipped into the cell suspension solution, such that ˜3 cm column of fluid was taken up by capillary action. A Ag/AgCl wire was dropped into the non-dipped end of the capillary also. The outside of the solution-filled end of the capillary was then dried and the capillary was loaded into the AutoPatch™
(§1) Borosilicate glass patch pipettes (from 1.5 mm OD, thin-walled filamented, GC150-TF capillary glass, Harvard) were pulled using a DMZ pipette puller (Zeitz Instruments), and were back-filled using the internal pipette solution, being careful that no bubbles remain at the tip or in the body of the pipette. Patch pipettes typically had resistances of 2.3-3.5 MΩ. Once filled, the pipette tip and a proportion of the shaft (˜15 mm) were dipped into Sigmacote (Sigma). The recording pipette was then loaded into the AutoPatch™. Automated patch-clamping was initiated by the operator, but thereafter AutoPatch.exe continued the experiment providing that pre-set conditions and criteria were satisfied.
Whole cell patch-clamp recordings were made using the AutoPatch™ rig, which incorporated an EPC9 amplifier (HEKA, Germany) under control of Pulse software (v8.54, HEKA, Germany), a motion controller with 2 translators (Newport, UK), valve controller (VF1) and a c-level suction device all at room temperature (22-24° C.). This equipment was completely under the control of AutoPatch.exe and operator intervention was only made when there was a requirement to refill the drug reservoirs or to prevent the loss of a cell due to a technical error. Cells with an Rseries greater than 18 MΩ were discounted from the experiment.
Qualification stages prior to perfusion and drug application ensured that the observed current met the criteria for the experiment. Only those cells with an IK>500 pA were used for experiments. Cells were continuously perfused with external solution at a flow rate of 1.8-2 ml/minute. […] Online analysis of the hKv1.5 current during the application of compounds was performed by the AutoPatch™ software. Voltage-step protocols and analysis of data was performed as described for conventional electrophysiology.
Electrophysiology voltage-step protocols and analysis of data was performed as follows. Data was sampled at 5 kHz, and filtered with a −3 dB bandwidth of 2.5 kHz. Cells were held at a voltage of −80 mV. Currents were evoked to a voltage step for 1000 ms in duration at 0 mV every 5 s. Currents were analysed using Pulsefit software (v8.54, HEKA, Germany), with the total charge measured during the whole of the voltage step. All other plots were produced using Igor Pro (WaveMetrics).

Assay [2] addresses T1, human Kv1.3 (Homo sapiens, UniProt P22001).
T1 construct: expressed in transfected cells; host or cells: stably transfected cells grown in medium for CHO cells
As to the kind of experiment: Kv1.3 Autopatch Electrophysiology (whole cell patch-clamp, stably transfected CHO cells). It is filed as cell-based. Conditions: compound 1 μM, step to +30 mV for 500 ms, inhibition of total charge relative to control, room temperature; for inhibition at 1 µM: CHO, read-out: hKv1.3 % inh. The procedure:
Cells stably transfected with cDNA for human Kv1.3 (in pcDNA3.1) were grown in Ex-cell 302 serum-free medium for CHO cells, supplemented with 10 μl/ml [100×] glutamine, 500 μg/ml G418 ([…]), and 1% HT supplement (50×, hypoxanthine and thymidine). Compounds were tested on these cells using the AutoPatch technology in whole cell mode.
The external bathing solution contained (in mM): 150 NaCl, 10 KCl, 1 MgCl2, 3 CaCl2, 10 HEPES, pH 7.4 with NaOH. Patch pipettes were filled with an electrode solution of composition (in mM): 100 K-Gluconate, 20 KCl, 1 MgCl2, 1 CaCl2, 10 HEPES, 11 EGTA, 5 ATP-Na2, 2 Glutathione pH 7.2 with KOH.
Compounds were dissolved in DMSO (100%) and made up in the external bather at a concentration of 1 μM immediately prior to use. All experiments were conducted at room temperature.
A cell suspension (10 ml), with a density of 6×10^6 cells, was aliquoted into a 15 ml centrifuge tube and stored at 4° C. before use. Prior to use a tube was taken and centrifuged at 1000 rpm for 4 mins at room temperature. The supernatant was then discarded, leaving a cell pellet at the bottom of the tube. The pellet was then resuspended using 1 ml of cold (4° C.), filtered (0.22 μm), 0.05% BSA/bather solution (0.05 g BSA/100 ml bather). The bottom of the tube was manually agitated followed by gentle tituration. The cell suspension was then placed in the AutoPatch™ temperature controlled cell-hotel at 14° C. and regularly titurated.
as §1, with “A length of Teflon capillary tubing was dipped into the cell suspension solution, and a column of fluid was taken up by negative pressure. The column of fluid was in electrically connectivity with a Ag/AgCl reference electrode. Borosilicate” for “Borosilicate”, “remained” for “remain”, “2.5-3.5” for “2.3-3.5”, “pipettes were placed in a multiwell array and mounted on” for “pipette was then loaded into”, “AutoPatch™ machine.” for “AutoPatch™.”, “patch-clamping and drug-application” for “patch-clamping”
Whole cell patch-clamp recordings were made using the AutoPatch™ rig, which incorporated an EPC9 or EPC10 amplifier (HEKA, Germany) under control of Pulse software (v8.54 or v8.76, HEKA, Germany), a cell applicator, automated drug application system (DAS), valve controller (VF1) and a suction device all at room temperature. This equipment was completely under the control of AutoPatch.exe and operator intervention was only made when there was a requirement to refill the bather reservoirs or to prevent the loss of a cell due to a technical error.
Qualification stages prior to perfusion and drug application ensured that the observed current met the criteria for the experiment. Cells were continuously perfused with external solution at a flow rate of ˜2 ml/minute.
Electrophysiology voltage-step protocols and analysis of data was performed as follows. Data were sampled at 5 kHz, and filtered with a −3 dB bandwidth of 2.5 kHz. Cells were held at a voltage of −80 mV. Currents were evoked by a voltage step to +30 mV for 500 ms in duration applied every 15 s. Online analysis of the hKv1.3 current during the application of compounds was performed by the Pulse (v8.54 or v8.76, HEKA, Germany), Excel (Microsoft, USA) and AutoPatch™ software, with the total charge measured during the whole of voltage step Inhibition of charge movement in the presence of drug was calculated relative to control.

T1 sequence (P22001 whole entry): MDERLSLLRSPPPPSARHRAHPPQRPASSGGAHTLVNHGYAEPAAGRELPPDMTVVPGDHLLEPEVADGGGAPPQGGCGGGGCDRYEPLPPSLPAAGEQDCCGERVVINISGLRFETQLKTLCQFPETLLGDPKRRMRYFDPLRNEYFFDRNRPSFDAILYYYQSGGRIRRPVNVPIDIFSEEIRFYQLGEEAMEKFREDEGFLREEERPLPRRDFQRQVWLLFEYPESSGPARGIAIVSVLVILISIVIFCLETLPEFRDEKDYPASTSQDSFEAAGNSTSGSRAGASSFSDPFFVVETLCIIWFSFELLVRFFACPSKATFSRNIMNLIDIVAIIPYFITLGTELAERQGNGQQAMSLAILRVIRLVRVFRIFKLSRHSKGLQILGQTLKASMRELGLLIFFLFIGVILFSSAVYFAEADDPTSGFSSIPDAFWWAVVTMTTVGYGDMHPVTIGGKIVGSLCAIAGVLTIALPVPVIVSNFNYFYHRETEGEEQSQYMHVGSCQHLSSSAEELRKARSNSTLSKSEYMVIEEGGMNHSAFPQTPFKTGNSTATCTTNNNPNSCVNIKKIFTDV

As for `Cn1ccc(S(=O)(=O)N(Cc2ccc(Cl)cc2)c2cccc(OCC(=O)Nc3ccccn3)c2)n1` [Example 49, 2-{3-[(4-Chloro-benzyl)-(1-methyl-1H-pyrazole-3-sulfonyl)-amino]-phenoxy}-N-pyridin-2-yl-acetamide], the inhibition at 1 µM in assay [1] turned out to be 99%; in assay [2], 95%.

With “1-Methyl-1H-pyrazole-3-sulfonic acid (4-chloro-benzyl)-[3-(2-oxo-pyrrolidin-1-yl)-phenyl]-amide [Example 38]”, in assay [1], the hKv1.5 % inh. came to 71%. In assay [2], this compound yielded a hKv1.3 % inh. of 96%.

Regarding “Pyridine-3-sulfonic acid benzyl-[3-(2-oxo-imidazolidin-1-yl)-phenyl]-a(2-oxo-imidazolidin-1-yl)-phenyl]-amide [Example 47]”, the hKv1.5 % inh. in assay [1] was determined as 51%. This compound yielded a hKv1.3 % inh. in assay [2] of 74%.

As for `CNC(=O)COc1cccc(N(Cc2ccc(Cl)cc2)S(=O)(=O)c2ccn(C)n2)c1` [Example 7, 2-{3-[(4-Chloro-benzyl)-(1-methyl-1H-pyrazole-3-sulfonyl)-amino]-phenoxy}-N-methyl-acetamide], the inhibition at 1 µM worked out at 93% in assay [1] and 99% in assay [2].

For `O=C(Cc1ccccc1)Nc1cccc(N(Cc2ccccc2)S(=O)(=O)c2ccccc2)c1` [Example 11, N-[3-(Benzenesulfonyl-benzyl-amino)-phenyl]-2-phenyl-acetamide], the inhibition at 1 µM in assay [1] is 77%; in assay [2], 86%.

For the compound `O=S(=O)(c1ccccc1)N(Cc1ccccc1)c1cccc(N2CCNC(c3ccccc3)C2)c1` (stereo not shown) [Example 14, N-Benzyl-N-[3-(3-phenyl-piperazin-1-yl)-phenyl]-benzenesulfonamide], the figures for the inhibition at 1 µM in assay [1] and in assay [2] were 77% and 94%, respectively.

Consider “N-(4-Chloro-benzyl)-3-cyano-4-fluoro-N-[3-(2-oxo-imidazolidin-1-yl)-phenyl]-benzenesulfonamide [Example 45]”, for which the hKv1.5 % inh. in assay [1] is 95%. The same compound had a hKv1.3 % inh. in assay [2] of 100%.

In assay [1], “Pyridine-3-sulfonic acid benzyl-[3-(4-phenyl-piperazin-1-yl)-phenyl]-amide [Example 16]” registered a hKv1.5 % inh. of 91%. The hKv1.3 % inh. in assay [2] stood at 97%.

In turn, “1-Methyl-1H-pyrazole-3-sulfonic acid benzyl-(3-morpholin-4-yl-phenyl)-amide [Example 41]” gave a hKv1.5 % inh. in assay [1] of 33%. This compound also gave a hKv1.3 % inh. in assay [2] of 92%.

For the compound `Cn1cncc1C(=O)Nc1cccc(N(Cc2ccccc2)S(=O)(=O)c2ccccc2)c1` [Example 3, 3-Methyl-3H-imidazole-4-carboxylic acid [3-(benzenesulfonyl-benzyl-amino)-phenyl]-amide], the inhibition at 1 µM in assay [1] stood at 73%; in assay [2] it was 90%.

In assay [1], “1-Methyl-1H-pyrazole-3-sulfonic acid (4-chloro-benzyl)-[3-(2-oxo-imidazolidin-1-yl)-phenyl]-amide [Example 42]” yielded a hKv1.5 % inh. of 77%. This compound returned a hKv1.3 % inh. in assay [2] of 99%.
